Each structure is given as a SMILES string.

Experiment [1] relates to B. subtilis used in a Botokiller water dispersible powder. The experiment can be described thus: Drug resistance test: growth of the bacteria constituting a Botokiller water dispersible powder on YBS medium containing a chemical pesticide. Particulars: 37° C., 2 days. In kind it is cell-based, Bacillus subtilis. Here is the method:
(§1) In this example, a test for resistance of Bacillus subtilis strain KS1 to chemical pesticides was performed. First, the YBS medium (one containing yeast extract and meat extract in agar) containing the chemical pesticide of interest was prepared in a petri dish. The concentration (ppm) of the chemical pesticide at this time was the same as a general application concentration. Next, Bacillus subtilis strain KS1 was smeared on the surface of the above-mentioned medium containing the chemical pesticide and incubated at 37° C. for 2 days. As a control area, a test for resistance of Bacillus subtilis isolated from a Botokiller water dispersible powder to chemical pesticides was performed in parallel. In this case, the suspension of the Botokiller water dispersible powder was spread on the YBS medium and the bacteria that appeared after overnight incubation at 37° C. were considered as the bacteria constituting a Botokiller water dispersible powder. In the resistance test, the bacteria constituting a Botokiller water dispersible powder were smeared on the surface of the medium containing a chemical pesticide and incubated at 37° C. for 2 days, as is the case with the above-mentioned Bacillus subtilis strain KS1. […]

Experiment [2] concerns Bacillus subtilis strain KS1. The experiment is described as follows: Drug resistance test: growth of strain KS1 on YBS medium containing a chemical pesticide. In kind it is cell-based. The settings on record: 37° C., 2 days. As for the experimental part:
as §1

Turning to `S=C([S-])NCCNC(=S)[S-].[Mn+2]` [Maneb], the “Resistance of the bacteria constituting a Botokiller water dispersible powder to the chemical pesticide (in words)” value in experiment [1] is given as “showed no resistance”. Moreover, the “Resistance of Bacillus subtilis strain KS1 to the chemical pesticide (in words)” value in experiment [2] is “showed resistance”.

These data come from US20110182871A1, “NOVEL MICROORGANISM AND PLANT DISEASE CONTROL AGENT USING THE MICROORAGNISM” (UNIVERSITY OF YAMANASHI, priority 2008, published 2011).
